{"source": "patent US20180368427A1", "about": "“Method of Reducing Spoilage in Harvested Produce During Storage and Shipping” (Apeel Technology, Inc., priority 2016, published 2018)", "system": "strawberries", "experiment": "Average daily mass loss rate of coated strawberries stored at low relative humidity", "settings": "over 4 days, 10 mg/mL in ethanol, spray coated, 23-27° C., 40-55% humidity (FIG. 7A), listed as pure PA-2G formulation (712)", "procedure": "FIG. 7A is a graph showing average daily mass loss rates for coated and uncoated harvested strawberries stored at low relative humidity levels for 4 days. The coating agents included various mixtures of PA-1G and PA-2G, as detailed below. Each bar in the graph represents average daily mass loss rates for a group of 15 strawberries. The strawberries corresponding to bar 702 were untreated (control group). The strawberries corresponding to bar 704 were treated with a solution for which the coating agent was substantially pure PA-1G. The strawberries corresponding to bar 706 were treated with a solution for which the coating agent was 75% PA-1G and 25% PA-2G by mass. The strawberries corresponding to bar 708 were treated with a solution for which the coating agent was 50% PA-1G and 50% PA-2G by mass. The strawberries corresponding to bar 710 were treated with a solution for which the coating agent was 25% PA-1G and 75% PA-2G by mass. The strawberries corresponding to bar 712 were treated with a solution for which the coating agent was substantially pure PA-2G. […] FIG. 7A is a graph showing average daily mass loss rates, measured over the course of 4 days, of the untreated strawberries and of the strawberries coated with one of the five solutions described above. […]"}
{"molecule": "CCCCCCCCCCCCCCCC(=O)OC(CO)CO", "note": "[PA-2G, 1,3-dihydroxypropan-2-yl palmitate]", "values": [{"measurement": "average daily mass loss rate", "value": 6.1, "unit": "%"}]}
